Measurements from patent US10945932B2, “Prebiotic oral care compositions containing carboxylic acids” (COLGATE-PALMOLIVE COMPANY, priority 2013, dated 2021).
Where two headings read alike, the source gives them in different places.

What was measured:
[1] = tested on: Actinomyces viscosus; conditions: A viscosus, BHI
Experimental: (§2) Late exponential growth phase liquid cultures were prepared by transferring the respective bacterium from blood agar plates to BHI and overnight incubation at 37° C. in an anaerobic atmosphere for A. viscosus, V. parvula, F. nucleatum, P. gingivalis, P. intermedia, T forsythia, A. naeslundii, and C. sputigena, and in a 5% CO2 environment for S. salivarius, S. sanguinis, S. mitis, A. actinomycetemcomitans, S. mutans, S. sobrinus and S. gordonii. Overnight cultures were transferred to BHI and adjusted to a concentration of 1×10^7 CFU/ml (colony forming units per ml) by measuring the optical density at 600 nm (OD600) (BioRad SmartSpec 3000). For each strain, 200 μl of the bacterial suspension was added to a 96-well plate containing 20 μl of the respective carboxylic acids. Final concentrations of the carboxylic acids were set to 5, 10, 20 and 25 μmol/ml. […] Plates were incubated as previously described.
(§3) For each combination of bacterium/carboxylic acid, and for each of their respective controls (i.e. the particular bacterium in the nutritionally rich medium with no carboxylic acid), the optical density was measured at 630 nm (OD630) at 0 h, 24 h and 48 h (Thermo Scientific Multiskan Ascent). Additionally, the OD630 for combinations of bacterium/carboxylic acid grown in a 5% CO2 environment were also measured every hour between 0 h and 9 h.
(§4) The experiment was carried out on three different days (thus providing 3 biological replicas) and on each day the experiment was carried out in quadruple (thus providing 4 technical replicas) for each combination of bacterium with carboxylic acid and for each control. For each day and for each combination, the average (mean) of the values obtained (as detailed above) for the four technical replicas was calculated to provide a single value for each combination on each day.

[2] = tested on: Streptococcus gordonii; experiment: Biofilm growth assay in BHI, crystal violet; format: cell-based; conditions: S gordonii
Experimental: (§1) Late exponential growth phase liquid cultures were prepared by transferring the respective bacterium from blood agar plates to BHI and overnight incubation at 37° C. in an anaerobic atmosphere for A. viscosus, V. parvula, F. nucleatum, P. gingivalis, P. intermedia, T. forsythia, A. naeslundii, and C. sputigena, and in a 5% CO2 environment for S. salivarius, S. sanguinis, S. mitis, A. actinomycetemcomitans, S. mutans, and S. gordonii. […] Additionally, for each bacterium tested, a background control, to correct for background staining, was added. This background control contained the bacterium tested and 0.03 weight % chlorhexidine, as an antiseptic. Plates were incubated as previously described. After 48 hrs the supernatant was removed from the wells of the plates. The wells were washed twice with 1×100 μL/PBS (phosphate buffered saline), fixed for 20 minutes with 96% vol. ethanol (96% vol. solution in water) and the biofilm retained at the bottom of the wells was stained with 1 weight % crystal violet (1 weight % solution in water). […] Quantification of the stained biofilm was performed by measuring the absorbance at 630 nm using a Multiskan Ascent microplate reader (Thermo Scientific).

[3] = tested on: Streptococcus mutans; experiment: Biofilm growth assay in BHI, crystal violet; format: cell-based; conditions: S mutans
Experimental: as §1

[4] = tested on: Porphyromonas gingivalis; experiment: Biofilm growth assay in BHI, crystal violet; format: cell-based; conditions: P gingivalis
Experimental: as §1

[5] = tested on: Tannerella forsythia; experiment: Biofilm growth assay in BHI, crystal violet; format: cell-based; conditions: T forsythia
Experimental: as §1

[6] = tested on: Actinomyces viscosus; experiment: Metabolic activity, Biolog phenotype microarray; format: cell-based; conditions: A viscosus
[7] = tested on: Fusobacterium nucleatum; experiment: Metabolic activity, Biolog phenotype microarray; format: cell-based; conditions: F nucleatum
[8] = tested on: Prevotella intermedia; experiment: Metabolic activity, Biolog phenotype microarray; format: cell-based; conditions: P intermedia
[9] = tested on: Streptococcus gordonii; experiment: Metabolic activity, Biolog phenotype microarray; format: cell-based; conditions: S gordonii
[10] = tested on: Streptococcus mutans; experiment: Metabolic activity, Biolog phenotype microarray; format: cell-based; conditions: S mutans
[11] = tested on: Aggregatibacter actinomycetemcomitans; experiment: Metabolic activity, Biolog phenotype microarray; format: cell-based; conditions: A actinomycetemcomitans
[12] = tested on: Streptococcus sobrinus; experiment: Metabolic activity, Biolog phenotype microarray; format: cell-based; conditions: S sobrinus
[13] = tested on: Streptococcus salivarius; experiment: Metabolic activity, Biolog phenotype microarray; format: cell-based; conditions: S salivarius
[14] = tested on: Veillonella parvula; experiment: Metabolic activity, Biolog phenotype microarray; format: cell-based; conditions: V parvula
[15] = tested on: Streptococcus mitis; experiment: Metabolic activity, Biolog phenotype microarray; format: cell-based; conditions: S mitis
[16] = tested on: Porphyromonas gingivalis; experiment: Metabolic activity, Biolog phenotype microarray; format: cell-based; conditions: P gingivalis
[17] = tested on: Actinomyces naeslundii; experiment: Metabolic activity, Biolog phenotype microarray; format: cell-based; conditions: A naeslundii
[18] = tested on: Capnocytophaga sputigena; experiment: Metabolic activity, Biolog phenotype microarray; format: cell-based; conditions: C sputigena
[19] = tested on: Streptococcus sanguinis; experiment: Metabolic activity, Biolog phenotype microarray; format: cell-based; conditions: S sanguinis
[20] = tested on: Tannerella forsythia; experiment: Metabolic activity, Biolog phenotype microarray; format: cell-based; conditions: T forsythia
[21] = tested on: Tannerella forsythia; conditions: T forsythia, BHI
Experimental: as §2, §3, §4

O=C(O)CCC(=O)O [Succinic acid, succinic acid]
extent of growth, maximal OD630 over 48 hr divided by maximal OD of control (control = 1) ([1]; 5 μmol/ml): 0.5671
extent of growth, maximal OD630 over 48 hr divided by maximal OD of control (control = 1) ([1]; 10 μmol/ml): 0.3693
extent of growth, maximal OD630 over 48 hr divided by maximal OD of control (control = 1) ([1]; 20 μmol/ml): 0.1827
extent of growth, maximal OD630 over 48 hr divided by maximal OD of control (control = 1) ([1]; 25 μmol/ml): 0.1586
biofilm growth, OD at 630 nm (crystal violet) at 48 hrs divided by OD of control (control = 1) ([2]; 5 μmol/ml): 2.3866
biofilm growth, OD at 630 nm (crystal violet) at 48 hrs divided by OD of control (control = 1) ([2]; 10 μmol/ml): 4.4978
biofilm growth, OD at 630 nm (crystal violet) at 48 hrs divided by OD of control (control = 1) ([2]; 20 μmol/ml): 1.6591
biofilm growth, OD at 630 nm (crystal violet) at 48 hrs divided by OD of control (control = 1) ([2]; 25 μmol/ml): 0.5512
biofilm growth, OD at 630 nm (crystal violet) at 48 hrs divided by OD of control (control = 1) ([3]; 5 μmol/ml): 0.0053
biofilm growth, OD at 630 nm (crystal violet) at 48 hrs divided by OD of control (control = 1) ([3]; 10 μmol/ml): 0.2498
biofilm growth, OD at 630 nm (crystal violet) at 48 hrs divided by OD of control (control = 1) ([3]; 20 μmol/ml): 1.9127
biofilm growth, OD at 630 nm (crystal violet) at 48 hrs divided by OD of control (control = 1) ([3]; 25 μmol/ml): 0.9686
biofilm growth, OD at 630 nm (crystal violet) at 48 hrs divided by OD of control (control = 1) ([4]; 5 μmol/ml): 1.0520
biofilm growth, OD at 630 nm (crystal violet) at 48 hrs divided by OD of control (control = 1) ([4]; 10 μmol/ml): 1.0031
biofilm growth, OD at 630 nm (crystal violet) at 48 hrs divided by OD of control (control = 1) ([4]; 20 μmol/ml): 0.1065
biofilm growth, OD at 630 nm (crystal violet) at 48 hrs divided by OD of control (control = 1) ([4]; 25 μmol/ml): 0.1691
biofilm growth, OD at 630 nm (crystal violet) at 48 hrs divided by OD of control (control = 1) ([5]; 5 μmol/ml): 0.3223
biofilm growth, OD at 630 nm (crystal violet) at 48 hrs divided by OD of control (control = 1) ([5]; 10 μmol/ml): 0.0000
biofilm growth, OD at 630 nm (crystal violet) at 48 hrs divided by OD of control (control = 1) ([5]; 20 μmol/ml): 0.0000
biofilm growth, OD at 630 nm (crystal violet) at 48 hrs divided by OD of control (control = 1) ([5]; 25 μmol/ml): 0.0000
metabolic activity, OD at 492 nm divided by OD of control (control = 1) ([6]; 24 hrs): 0.9752
metabolic activity, OD at 492 nm divided by OD of control (control = 1) ([6]; 48 hrs): 1.0089
metabolic activity, OD at 492 nm divided by OD of control (control = 1) ([7]; 24 hrs): 0.8508
metabolic activity, OD at 492 nm divided by OD of control (control = 1) ([7]; 48 hrs): 0.8574
metabolic activity, OD at 492 nm divided by OD of control (control = 1) ([8]; 24 hrs): 1.0677
metabolic activity, OD at 492 nm divided by OD of control (control = 1) ([8]; 48 hrs): 1.1361
metabolic activity, OD at 492 nm divided by OD of control (control = 1) ([9]; 24 hrs): 0.7960
metabolic activity, OD at 492 nm divided by OD of control (control = 1) ([9]; 48 hrs): 0.8167
metabolic activity, OD at 492 nm divided by OD of control (control = 1) ([10]; 24 hrs): 0.8991
metabolic activity, OD at 492 nm divided by OD of control (control = 1) ([10]; 48 hrs): 0.8576
metabolic activity, OD at 492 nm divided by OD of control (control = 1) ([11]; 24 hrs): 1.1066
metabolic activity, OD at 492 nm divided by OD of control (control = 1) ([11]; 48 hrs): 1.2815
metabolic activity, OD at 492 nm divided by OD of control (control = 1) ([12]; 24 hrs): 0.8265
metabolic activity, OD at 492 nm divided by OD of control (control = 1) ([12]; 48 hrs): 0.8068
metabolic activity, OD at 492 nm divided by OD of control (control = 1) ([13]; 24 hrs): 0.9019
metabolic activity, OD at 492 nm divided by OD of control (control = 1) ([13]; 48 hrs): 0.8347
metabolic activity, OD at 492 nm divided by OD of control (control = 1) ([14]; 24 hrs): 2.8247
metabolic activity, OD at 492 nm divided by OD of control (control = 1) ([14]; 48 hrs): 2.2852
metabolic activity, OD at 492 nm divided by OD of control (control = 1) ([15]; 24 hrs): 0.9268
metabolic activity, OD at 492 nm divided by OD of control (control = 1) ([15]; 48 hrs): 0.8537
metabolic activity, OD at 492 nm divided by OD of control (control = 1) ([16]; 24 hrs): 0.8726
metabolic activity, OD at 492 nm divided by OD of control (control = 1) ([16]; 48 hrs): 0.9109
metabolic activity, OD at 492 nm divided by OD of control (control = 1) ([17]; 24 hrs): 0.9767
metabolic activity, OD at 492 nm divided by OD of control (control = 1) ([17]; 48 hrs): 0.9858
metabolic activity, OD at 492 nm divided by OD of control (control = 1) ([18]; 24 hrs): 1.0400
metabolic activity, OD at 492 nm divided by OD of control (control = 1) ([18]; 48 hrs): 1.0105
metabolic activity, OD at 492 nm divided by OD of control (control = 1) ([19]; 24 hrs): 0.9046
metabolic activity, OD at 492 nm divided by OD of control (control = 1) ([19]; 48 hrs): 0.8763
metabolic activity, OD at 492 nm divided by OD of control (control = 1) ([20]; 24 hrs): 0.9307
metabolic activity, OD at 492 nm divided by OD of control (control = 1) ([20]; 48 hrs): 0.9641
extent of growth, maximal OD630 over 48 hr divided by maximal OD of control (control = 1) ([21]; 5 μmol/ml): 0.9040
extent of growth, maximal OD630 over 48 hr divided by maximal OD of control (control = 1) ([21]; 10 μmol/ml): 0.7937
extent of growth, maximal OD630 over 48 hr divided by maximal OD of control (control = 1) ([21]; 20 μmol/ml): 0.7975
extent of growth, maximal OD630 over 48 hr divided by maximal OD of control (control = 1) ([21]; 25 μmol/ml): 0.8103
